Measured values: patent US10550124B2, “Atropisomerism for increased kinase inhibitor selectivity” (SAN DIEGO STATE UNIVERSITY RESEARCH FOUNDATION, priority 2015, dated 2020)
One block for each compound: values may come before it.

Assays:
[1] = Experimental measurement of the barriers to rotation (chiral HPLC); assay type: physicochemical; details: for Barrier to Rotation: calculated from kobs, Gibbs free energy equation; for Barrier to Rotation kobs: observed rate constant of racemization, in ethanol, heated at constant temperature, in s^-1 (unit assumed)
Description: Enantiomerically enriched atropisomeric pyrrolopyrimidine analogues were isolated via chiral HPLC (Daicel Chiralpak IA PN:80335, 3 mL/min, 80:20 or 50:50 hexanes:[…], 25° C.) and evaporated in vacuo. The enantiomerically enriched analogues were then dissolved in ethanol and placed in a sealed 2-dram vial and heated under constant temperature on an aluminum block. At each time point, an aliquot of the mixture was removed and quenched in an HPLC vial containing ice cold 80:20 hexanes:ethanol. Each sample was then injected into the chiral HPLC system (Daicel Chiralpak IA PN:80325, 1 mL/min, 80:20 or 50:50 hexanes:ethanol, 25° C.) and enantiomeric excess (ee) measured. The timepoint and enantiomeric excess (ee) data was then plotted in order to determine an observed rate constant, kobs, at the corresponding temperature. The barrier to rotation was then calculated using the relationship of kracemization=2*kenantiomerization and then substituted into the Gibbs Free Energy Equation:
[formula] where h=Planck Constant, kb=Boltzmann Constant, T=Temp. (K), R=Gas Constant.

Src kinase = Src kinase (Homo sapiens, UniProt P12931); test: Z′-LYTE kinase inhibition assay, Src; assay type: biochemical; details: for IC50: Src, error is standard deviation
Chain of Src kinase (P12931 whole entry): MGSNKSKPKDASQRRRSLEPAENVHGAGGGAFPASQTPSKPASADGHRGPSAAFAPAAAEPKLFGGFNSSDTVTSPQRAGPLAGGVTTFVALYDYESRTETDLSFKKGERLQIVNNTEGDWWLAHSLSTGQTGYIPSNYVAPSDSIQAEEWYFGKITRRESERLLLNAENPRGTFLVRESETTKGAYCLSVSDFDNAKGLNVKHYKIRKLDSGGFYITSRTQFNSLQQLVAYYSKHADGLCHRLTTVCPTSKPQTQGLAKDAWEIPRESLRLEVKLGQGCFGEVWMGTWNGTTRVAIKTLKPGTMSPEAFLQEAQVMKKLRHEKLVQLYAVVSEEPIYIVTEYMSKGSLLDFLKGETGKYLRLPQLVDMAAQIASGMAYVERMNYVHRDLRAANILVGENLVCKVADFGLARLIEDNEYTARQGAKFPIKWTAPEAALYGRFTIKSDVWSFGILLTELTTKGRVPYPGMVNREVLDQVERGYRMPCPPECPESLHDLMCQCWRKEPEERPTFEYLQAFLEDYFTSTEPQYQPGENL
From the text: Based on the observed stereochemical stabilities, we chose 1f, 2e, and 2f for further study and obtained inhibition data against Src kinase from Life Technologies' Z′-LYTE™ kinase assay (Scheme 3).
(§1) All samples were sent out to Life Technologies to obtain kinase inhibition data. A brief description of the assays and analyses are included below.
(§2) Assay Theory (SelectScreen® Kinase Profiling Services (Life Technologies, Madison, Wis. USA). The Z′-LYTE® biochemical assay employs a fluorescence-based, coupled-enzyme format and is based on the differential sensitivity of phosphorylated and non-phosphorylated peptides to proteolytic cleavage. The peptide substrate is labeled with two fluorophores one at each end—that make up a FRET pair.
(§3) In the primary reaction, the kinase transfers the gamma-phosphate of ATP to a single tyrosine, serine or threonine residue in a synthetic FRET-peptide. In the secondary reaction, a site-specific protease recognizes and cleaves non-phosphorylated FRET-peptides.
(§4) Phosphorylation of FRET-peptides suppresses cleavage by the Development Reagent. Cleavage disrupts FRET between the donor (i.e., coumarin) and acceptor (i.e., fluorescein) fluorophores on the FRET-peptide, whereas uncleaved, phosphorylated FRET-peptides maintain FRET. A ratiometric method, which calculates the ratio (the Emission Ratio) of donor emission to acceptor emission after excitation of the donor fluorophore at 400 nm, is used to quantitate reaction progress, as shown in the equation below: […]
(§5) A significant benefit of this ratiometric method for quantitating reaction progress is the elimination of well-to-well variations in FRET-peptide concentration and signal intensities. As a result, the assay yields very high Z′-factor values (>0.7) at a low percent phosphorylation. Both cleaved and uncleaved FRET-peptides contribute to the fluorescence signals and therefore to the Emission Ratio. The extent of phosphorylation of the FRET-peptide can be calculated from the Emission Ratio. The Emission Ratio will remain low if the FRET-peptide is phosphorylated (i.e., no kinase inhibition) and will he high if the FRET-peptide is non-phosphorylated (i.e., kinase inhibition).

Abl = Abl (Homo sapiens, UniProt P00519); test: Z′-LYTE kinase inhibition assay, Abl; assay type: biochemical; details: for % inhibition: average of 2 runs
Chain of Abl (P00519 whole entry): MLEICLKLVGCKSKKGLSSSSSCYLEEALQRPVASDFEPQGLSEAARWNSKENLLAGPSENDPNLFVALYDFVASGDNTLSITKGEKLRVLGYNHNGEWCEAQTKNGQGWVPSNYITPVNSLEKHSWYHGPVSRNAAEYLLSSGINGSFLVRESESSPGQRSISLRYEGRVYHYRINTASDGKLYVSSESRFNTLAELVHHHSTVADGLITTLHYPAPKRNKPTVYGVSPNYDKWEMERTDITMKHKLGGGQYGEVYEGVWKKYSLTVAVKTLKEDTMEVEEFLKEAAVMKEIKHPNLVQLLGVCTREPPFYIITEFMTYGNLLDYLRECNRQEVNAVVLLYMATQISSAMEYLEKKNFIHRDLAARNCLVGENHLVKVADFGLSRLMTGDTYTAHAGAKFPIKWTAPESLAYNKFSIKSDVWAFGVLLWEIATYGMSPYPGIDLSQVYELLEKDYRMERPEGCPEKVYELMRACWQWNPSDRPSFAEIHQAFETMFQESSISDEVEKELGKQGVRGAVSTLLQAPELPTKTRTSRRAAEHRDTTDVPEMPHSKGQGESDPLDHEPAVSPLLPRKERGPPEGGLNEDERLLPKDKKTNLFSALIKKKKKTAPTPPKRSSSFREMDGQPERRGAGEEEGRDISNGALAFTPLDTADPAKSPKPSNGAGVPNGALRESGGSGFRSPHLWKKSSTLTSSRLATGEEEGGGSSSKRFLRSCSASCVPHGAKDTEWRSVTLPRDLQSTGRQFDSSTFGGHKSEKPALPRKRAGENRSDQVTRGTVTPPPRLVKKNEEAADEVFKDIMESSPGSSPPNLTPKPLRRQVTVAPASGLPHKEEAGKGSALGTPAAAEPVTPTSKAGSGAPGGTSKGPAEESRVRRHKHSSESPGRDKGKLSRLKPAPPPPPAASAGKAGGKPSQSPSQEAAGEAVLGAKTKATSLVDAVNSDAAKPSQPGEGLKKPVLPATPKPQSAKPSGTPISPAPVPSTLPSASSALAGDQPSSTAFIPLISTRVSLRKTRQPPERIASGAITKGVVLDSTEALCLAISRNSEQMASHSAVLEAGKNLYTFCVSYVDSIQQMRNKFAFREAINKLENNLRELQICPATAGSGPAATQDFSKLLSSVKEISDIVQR
From the text: as §1, §2, §3, §4, §5

Alk = Alk (Homo sapiens, UniProt Q9UM73); test: Z′-LYTE kinase inhibition assay, Alk; assay type: biochemical; details: average of 2 runs
From the text: as §1, §2, §3, §4, §5

Blk = Blk (Homo sapiens, UniProt P51451); test: Z′-LYTE kinase inhibition assay, Blk; assay type: biochemical; details: average of 2 runs
From the text: as §1, §2, §3, §4, §5

BTK = BTK (Homo sapiens, UniProt Q06187); test: Z′-LYTE kinase inhibition assay, BTK; assay type: biochemical; details: average of 2 runs
From the text: as §1, §2, §3, §4, §5

CSK = CSK (Homo sapiens, UniProt P41240); test: Z′-LYTE kinase inhibition assay, CSK; assay type: biochemical; details: average of 2 runs
From the text: as §1, §2, §3, §4, §5

EGFR = EGFR (Homo sapiens, UniProt P00533); test: Z′-LYTE kinase inhibition assay, EGFR; assay type: biochemical; details: for % inhibition: average of 2 runs
Chain of EGFR (P00533 25-1210): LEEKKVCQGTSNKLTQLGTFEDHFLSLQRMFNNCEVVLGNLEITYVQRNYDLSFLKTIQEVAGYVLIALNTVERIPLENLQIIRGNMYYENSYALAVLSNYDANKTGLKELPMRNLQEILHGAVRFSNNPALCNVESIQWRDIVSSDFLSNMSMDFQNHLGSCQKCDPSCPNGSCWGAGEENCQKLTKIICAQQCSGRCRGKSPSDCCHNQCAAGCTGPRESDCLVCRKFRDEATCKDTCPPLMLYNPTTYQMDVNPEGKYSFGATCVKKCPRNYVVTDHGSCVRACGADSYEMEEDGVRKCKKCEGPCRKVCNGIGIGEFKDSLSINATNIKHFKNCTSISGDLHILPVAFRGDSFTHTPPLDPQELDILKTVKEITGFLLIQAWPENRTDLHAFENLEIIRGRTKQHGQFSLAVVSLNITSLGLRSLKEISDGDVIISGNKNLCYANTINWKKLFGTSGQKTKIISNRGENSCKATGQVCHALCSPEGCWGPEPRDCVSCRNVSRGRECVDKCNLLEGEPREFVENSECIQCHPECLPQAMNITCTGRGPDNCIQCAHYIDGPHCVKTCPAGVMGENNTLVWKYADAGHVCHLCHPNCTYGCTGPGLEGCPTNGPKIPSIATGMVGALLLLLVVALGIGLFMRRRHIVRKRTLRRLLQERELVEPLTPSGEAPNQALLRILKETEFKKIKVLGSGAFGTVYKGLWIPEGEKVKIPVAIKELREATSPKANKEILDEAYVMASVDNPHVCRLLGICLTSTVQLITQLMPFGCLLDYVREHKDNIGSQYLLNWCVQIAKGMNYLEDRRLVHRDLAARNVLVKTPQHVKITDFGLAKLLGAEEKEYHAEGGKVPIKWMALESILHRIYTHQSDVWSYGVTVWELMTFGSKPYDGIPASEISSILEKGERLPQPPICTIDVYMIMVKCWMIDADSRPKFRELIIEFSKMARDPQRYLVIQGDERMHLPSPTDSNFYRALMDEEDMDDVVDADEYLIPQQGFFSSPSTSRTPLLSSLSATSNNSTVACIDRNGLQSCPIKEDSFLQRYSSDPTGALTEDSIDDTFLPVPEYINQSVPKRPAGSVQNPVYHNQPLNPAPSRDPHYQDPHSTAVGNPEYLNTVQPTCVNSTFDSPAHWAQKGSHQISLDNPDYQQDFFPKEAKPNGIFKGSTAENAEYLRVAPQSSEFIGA
From the text: as §1, §2, §3, §4, §5

Her-2 = Her-2 (Homo sapiens, UniProt P04626); test: Z′-LYTE kinase inhibition assay, Her-2; assay type: biochemical; details: average of 2 runs
From the text: as §1, §2, §3, §4, §5

Fgr = Fgr (Homo sapiens, UniProt P09769); test: Z′-LYTE kinase inhibition assay, Fgr; assay type: biochemical; details: average of 2 runs
From the text: as §1, §2, §3, §4, §5

Fyn = Fyn (Homo sapiens, UniProt P06241); test: Z′-LYTE kinase inhibition assay, Fyn; assay type: biochemical; details: average of 2 runs
From the text: as §1, §2, §3, §4, §5

Hck = Hck (Homo sapiens, UniProt P08631); test: Z′-LYTE kinase inhibition assay, Hck; assay type: biochemical; details: average of 2 runs
From the text: as §1, §2, §3, §4, §5

Kit = Kit (Homo sapiens, UniProt P10721); test: Z′-LYTE kinase inhibition assay, Kit; assay type: biochemical; details: average of 2 runs
From the text: as §1, §2, §3, §4, §5

Lck = Lck (Homo sapiens, UniProt P06239); test: Z′-LYTE kinase inhibition assay, Lck; assay type: biochemical; details: average of 2 runs
Chain of Lck (P06239 whole entry): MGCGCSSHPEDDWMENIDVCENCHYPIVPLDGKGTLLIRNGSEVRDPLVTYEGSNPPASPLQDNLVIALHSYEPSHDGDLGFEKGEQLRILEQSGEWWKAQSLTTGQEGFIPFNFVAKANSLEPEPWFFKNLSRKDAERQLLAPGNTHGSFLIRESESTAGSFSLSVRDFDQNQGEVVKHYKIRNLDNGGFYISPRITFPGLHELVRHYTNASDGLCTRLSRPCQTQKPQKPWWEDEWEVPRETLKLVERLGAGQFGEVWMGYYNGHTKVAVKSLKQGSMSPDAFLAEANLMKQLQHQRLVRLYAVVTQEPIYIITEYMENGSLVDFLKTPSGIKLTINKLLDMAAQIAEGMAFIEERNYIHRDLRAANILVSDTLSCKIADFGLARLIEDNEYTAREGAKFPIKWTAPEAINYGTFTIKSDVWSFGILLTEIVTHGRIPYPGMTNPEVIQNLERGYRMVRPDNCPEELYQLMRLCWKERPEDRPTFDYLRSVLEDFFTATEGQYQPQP
From the text: as §1, §2, §3, §4, §5

Lyn = Lyn (Homo sapiens, UniProt P07948); test: Z′-LYTE kinase inhibition assay, Lyn; assay type: biochemical; details: average of 2 runs
From the text: as §1, §2, §3, §4, §5

pdgfr-a = pdgfr-a (Homo sapiens, UniProt P16234); test: Z′-LYTE kinase inhibition assay, pdgfr-a; assay type: biochemical; details: average of 2 runs
From the text: as §1, §2, §3, §4, §5

pdgfr-b = pdgfr-b (Homo sapiens, UniProt P09619); test: Z′-LYTE kinase inhibition assay, pdgfr-b; assay type: biochemical; details: average of 2 runs
From the text: as §1, §2, §3, §4, §5

Ret = Ret (Homo sapiens, UniProt P07949); test: Z′-LYTE kinase inhibition assay, Ret; assay type: biochemical; details: for % inhibition: average of 2 runs
Chain of Ret (P07949 29-1114): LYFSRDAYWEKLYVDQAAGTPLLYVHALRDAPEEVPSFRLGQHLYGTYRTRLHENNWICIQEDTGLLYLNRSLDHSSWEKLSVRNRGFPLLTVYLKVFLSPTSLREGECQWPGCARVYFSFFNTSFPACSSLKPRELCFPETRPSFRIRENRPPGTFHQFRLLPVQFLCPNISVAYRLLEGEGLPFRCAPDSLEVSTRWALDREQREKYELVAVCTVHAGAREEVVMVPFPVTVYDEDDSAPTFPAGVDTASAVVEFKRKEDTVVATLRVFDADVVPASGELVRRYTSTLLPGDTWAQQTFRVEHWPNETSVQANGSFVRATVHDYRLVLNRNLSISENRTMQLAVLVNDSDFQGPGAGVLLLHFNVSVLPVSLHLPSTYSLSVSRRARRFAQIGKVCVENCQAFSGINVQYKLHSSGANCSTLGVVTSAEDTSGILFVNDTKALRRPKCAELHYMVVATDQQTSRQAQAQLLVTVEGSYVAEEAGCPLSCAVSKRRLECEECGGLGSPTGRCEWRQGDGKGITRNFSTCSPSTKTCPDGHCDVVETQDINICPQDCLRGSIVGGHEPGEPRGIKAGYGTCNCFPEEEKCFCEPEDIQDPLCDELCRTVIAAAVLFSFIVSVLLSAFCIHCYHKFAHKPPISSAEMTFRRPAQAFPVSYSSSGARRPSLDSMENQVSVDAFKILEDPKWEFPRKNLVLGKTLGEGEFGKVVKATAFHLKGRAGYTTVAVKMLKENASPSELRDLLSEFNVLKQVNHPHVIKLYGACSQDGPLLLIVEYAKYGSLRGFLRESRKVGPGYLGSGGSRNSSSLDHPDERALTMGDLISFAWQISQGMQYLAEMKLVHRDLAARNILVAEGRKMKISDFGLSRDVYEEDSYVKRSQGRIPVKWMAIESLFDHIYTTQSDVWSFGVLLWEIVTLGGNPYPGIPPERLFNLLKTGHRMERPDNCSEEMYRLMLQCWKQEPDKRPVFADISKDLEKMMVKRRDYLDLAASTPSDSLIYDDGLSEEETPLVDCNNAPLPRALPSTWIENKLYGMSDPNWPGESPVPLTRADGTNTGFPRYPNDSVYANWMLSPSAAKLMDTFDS
From the text: as §1, §2, §3, §4, §5

Yes = Yes (Homo sapiens, UniProt P07947); test: Z′-LYTE kinase inhibition assay, Yes; assay type: biochemical
Chain of Yes (P07947 whole entry): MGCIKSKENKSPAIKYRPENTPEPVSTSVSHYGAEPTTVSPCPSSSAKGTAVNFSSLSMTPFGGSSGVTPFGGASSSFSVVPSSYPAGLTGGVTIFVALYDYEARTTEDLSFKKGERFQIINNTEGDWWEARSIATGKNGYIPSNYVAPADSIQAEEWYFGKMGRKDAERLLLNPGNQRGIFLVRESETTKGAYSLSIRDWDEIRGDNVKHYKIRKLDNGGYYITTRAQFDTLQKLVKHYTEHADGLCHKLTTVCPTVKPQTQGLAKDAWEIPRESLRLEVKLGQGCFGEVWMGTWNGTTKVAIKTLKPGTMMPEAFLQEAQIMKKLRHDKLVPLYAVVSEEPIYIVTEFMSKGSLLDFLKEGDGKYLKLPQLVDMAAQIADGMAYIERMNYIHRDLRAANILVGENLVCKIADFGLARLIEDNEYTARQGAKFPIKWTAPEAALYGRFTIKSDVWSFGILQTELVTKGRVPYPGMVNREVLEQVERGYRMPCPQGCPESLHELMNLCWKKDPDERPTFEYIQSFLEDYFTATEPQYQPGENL
From the text: as §1, §2, §3, §4, §5

[2] = test system: panel of 18 tyrosine kinases; test: Kinase inhibitor profiling across a panel of tyrosine kinases (selectivity); assay type: biochemical; details: for S(40%): number of kinases inhibited greater than 40% divided by number of kinases tested (including Src)
Description: In order to probe the effect of atropisomeric conformation on kinase selectivity we subjected 1f, 2e, and 2f to kinase inhibitor profiling across a panel of tyrosine kinases at 1000 nM and 5000 nM (data for 2e shown in Scheme 4 below).
To analyze each analog's selectivity across the panel we turned to selectivity scores (Davis et al., Nat. Biotechnol. 2011, 29, 1046-51), simply the number of kinases inhibited above a certain threshold divided by the number of kinases evaluated. […] For example at 1000 nM 2e-(R) yielded an S(40%) of 0.11 while 2e-(S) gave an S(40%) of 0.16. […] Differences in selectivity between 2e-(R) and 2e-(S) at 5000 nM (4.5 times the IC50 of 2e-(S) toward Src) and for 5 at 1000 nM (6.25 times the IC50 of 5 toward Src) can be viewed graphically across tyrosine kinases (FIG. 3). Importantly, similar trends were also observed across each of the atropisomeric series tested.
as §1, §2, §3, §4, §5

Barrier to Rotation [1]: 29.0 kcal/mol
Structure (SMILES): COc1ccc(Br)c(-c2c(Cl)n(C3CCCC3)c3ncnc(N)c23)c1 (racemic) [Compound 1f, 5-(2-bromo-5-methoxyphenyl)-6-chloro-7-cyclopentyl-7H-pyrrolo[2,3-d]pyrimidin-4-amine]
Barrier to Rotation kobs [1]: 1.01E−05

Barrier to Rotation [1]: 30.4 kcal/mol
Structure (SMILES): COc1ccc(Br)c(-c2c(Cl)n(C(C)(C)C)c3ncnc(N)c23)c1 (racemic) [Compound 2f, 5-(2-bromo-5-methoxyphenyl)-7-(tert-butyl)-6-chloro-7H-pyrrolo[2,3-d]pyrimidin-4-amine]
Barrier to Rotation kobs [1]: 2.68E−05

IC50 (Src kinase): > 10000 nM
Structure (SMILES): COc1ccc(Br)c(-c2c(Cl)n(C3CCCC3)c3ncnc(N)c23)c1 (single isomer, unassigned) [1f-(R), 5-(2-bromo-5-methoxyphenyl)-6-chloro-7-cyclopentyl-7H-pyrrolo[2,3-d]pyrimidin-4-amine]

More lines, now with the values behind:

Structure (SMILES): COc1ccc(Cl)c(-c2c(Cl)n(C(C)(C)C)c3ncnc(N)c23)c1 (racemic) [Compound 2e, 7-(tert-butyl)-6-chloro-5-(2-chloro-5-methoxyphenyl)-7H-pyrrolo[2,3d]pyrimidin-4-amine]
Barrier to Rotation [1]: 28.6 kcal/mol | Barrier to Rotation kobs [1]: 3.27E−05

Structure (SMILES): COc1ccc(Br)c(-c2c(Cl)n(C3CCCC3)c3ncnc(N)c23)c1 (single isomer, unassigned) [1f-(S), 5-(2-bromo-5-methoxyphenyl)-6-chloro-7-cyclopentyl-7H-pyrrolo[2,3-d]pyrimidin-4-amine]
IC50 (Src kinase): 1300 nM

Structure (SMILES): COc1ccc(Cl)c(-c2c(Cl)n(C(C)(C)C)c3ncnc(N)c23)c1 (single isomer, unassigned) [2e-(R), 7-(tert-butyl)-6-chloro-5-(2-chloro-5-methoxyphenyl)-7H-pyrrolo[2,3d]pyrimidin-4-amine]
IC50 of Kinase/IC50 of Yes (Abl; Abl relative to Yes): 10.0 | % inhibition (Abl; Abl, 1000 nM, 1 µM): 11% | % inhibition (Abl; Abl, 5000 nM): 26% | % inhibition (Abl; Abl, 5000 nM, 5 µM): 26% | IC50 (Abl; Abl, error is standard deviation): > 10000 nM | inhibition at 1 µM (Alk; 1000 nM): 6% | % inhibition (Alk; 5000 nM, 5 µM): 18% | % inhibition (Blk; 1000 nM, 1 µM): 3% | inhibition at 5 µM (Blk; 5000 nM): 32% | inhibition at 1 µM (BTK; 1000 nM): 10% | % inhibition (BTK; 5000 nM, 5 µM): 29% | inhibition at 1 µM (CSK; 1000 nM): 21% | inhibition at 5 µM (CSK; 5000 nM): 35% | IC50 of Kinase/IC50 of Yes (EGFR; EGFR relative to Yes): >10.0 | % inhibition (EGFR; EGFR, 1000 nM, 1 µM): −4% | % inhibition (EGFR; EGFR, 5000 nM, 5 µM): 0% | IC50 (EGFR; EGFR, error is standard deviation): > 10000 nM | % inhibition (Her-2; 1000 nM, 1 µM): −2% | inhibition at 5 µM (Her-2; 5000 nM): 0% | inhibition at 1 µM (Fgr; 1000 nM): 45% | inhibition at 5 µM (Fgr; 5000 nM): 77% | inhibition at 1 µM (Fyn; 1000 nM): 19% | inhibition at 5 µM (Fyn; 5000 nM): 44% | inhibition at 1 µM (Hck; 1000 nM): 24% | inhibition at 5 µM (Hck; 5000 nM): 40% | % inhibition (Kit; 1000 nM, 1 µM): 5% | inhibition at 5 µM (Kit; 5000 nM): 26% | inhibition at 1 µM (Lck; 1000 nM): 23% | inhibition at 5 µM (Lck; 5000 nM): 51% | inhibition at 1 µM (Lyn; 1000 nM): 19% | inhibition at 5 µM (Lyn; 5000 nM): 57% | inhibition at 1 µM (pdgfr-a; 1000 nM): 3% | inhibition at 5 µM (pdgfr-a; 5000 nM): 8% | % inhibition (pdgfr-b; 1000 nM, 1 µM): 4% | inhibition at 5 µM (pdgfr-b; 5000 nM): 13% | IC50 of Kinase/IC50 of Yes (Ret; Ret relative to Yes): 2.07 | % inhibition (Ret; Ret, 1000 nM, 1 µM): 35% | % inhibition (Ret; Ret, 5000 nM): 73% | % inhibition (Ret; Ret, 5000 nM, 5 µM): 73% | IC50 (Ret; Ret, error is standard deviation): 1860 nM | IC50 of Kinase/IC50 of Yes (Yes; Yes relative to Yes): 1 | inhibition at 1 µM (Yes; Yes, 1000 nM, average of 2 runs): 53% | inhibition at 5 µM (Yes; Yes, 5000 nM, average of 2 runs): 79% | IC50 (Yes; Yes, error is standard deviation): 895 nM | IC50 of Kinase/IC50 of Yes (Src kinase; Src relative to Yes): 6.22 | IC50 (Src kinase): 5570 nM | S(40%) ([2]; 1000 nM): 0.11 | S(40%) ([2]; 5000 nM): 0.44 | augmentation of 5's inherent selectivity ([2]; Ret over Abl and Src): 4 fold

Structure (SMILES): COc1ccc(Cl)c(-c2c(Cl)n(C3CCCC3)c3ncnc(N)c23)c1 [Compound 1e, 6-chloro-5-(2-chloro-5-methoxyphenyl)-7-cyclopentyl-7H-pyrrolo[2,3-d]pyrimidin-4-amine]
Barrier to Rotation [1]: 27.2 kcal/mol | Barrier to Rotation kobs [1]: 1.24E−04
